The text below walks through data of the supplement of paper PMC3974653.

The structures appear in SMILES notation. Where a name gives a salt, the structure may show the parent alone.

For this assay, the system named is MTT (mouse pheochromocytoma). Description: IC50 of cell viability (ATP content). Conditions: (24 or 48 h). Summed up:
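Cells of the MTT mouse pheochromocytoma line, 5 µl per well at 200,000 cells/ml, were grown overnight at 37°C, 5% CO2 in white 1536-well plates with DMEM, 5% FBS and 1% horse serum. Pintool transfer then delivered 23 nl of library compound in DMSO, giving 8 final concentrations from 0.5 nM to 46 µM, for an exposure of 24 or 48 hrs. Luminescence from CellTiter-Glo was read after 15 minutes and referenced to positive-control wells (100%) and DMSO wells (0%). IC50 was calculated with a four-parameter logistic fit.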

Take `NC1=NCC2c3ccccc3Cc3ccccc3N12` (stereo not given) [EPINASTINE HYDROCHLORIDE]: the “IC50 of cell viability” value is > 46 µM.

Take `Nc1nc(=O)n([C@@H]2CS[C@H](CO)O2)cc1F` [EMTRICITABINE]: the “IC50 of cell viability” value is > 46 µM.

As to `CCC(=O)O[C@]1(C(=O)CCl)[C@@H](C)CC2C3C[C@H](F)C4=CC(=O)C=CC4(C)[C@@]3(F)C(O)CC21C` (stereo not given in full) [HALOBETASOL PROPIONATE], the “IC50 of cell viability” value was > 46 µM.

As for `[O-]C(=O)C/1=C(CSC2C(NC(=O)CC3=CC=CS3)C(=O)N12)\C[N+]4=CC=CC=C4` (stereo not given) [CEPHALORIDINE], the “IC50 of cell viability” value is > 46 µM.

Regarding `NC1CCCCC1N.O=C([O-])C(=O)[O-].[Pt+2]` (stereo not given) [OXALIPLATIN], the “IC50 of cell viability” value is > 46 µM.

Turning to `Nc1ncnc2c1ncn2CCOCP(=O)(O)O` [Adefovir], the “IC50 of cell viability” value is > 46 µM.

For the compound `CCC1(c2ccccc2)C(=O)NCNC1=O` [PRIMIDONE], the “IC50 of cell viability” value is > 46 µM.

Regarding `COc1cc(C(=O)NCCCCCC(=O)O)cc(OC)c1OC` [ACIDUM CAPOBENICUM], the “IC50 of cell viability” value was > 46 µM.

Turning to `CCCCCCC(O)C/C=C\CCCCCCCC(=O)O` (stereo not given) [Ricinoleic acid], the “IC50 of cell viability” value is > 46 µM.

As to `Oc1ccc(Cl)cc1` [p-Chlorophenol], the “IC50 of cell viability” value was > 46 µM.

As to `COc1cc(CC(C)N)c(OC)cc1C` (single isomer, unassigned; (-)) [(-)-2,5-Dimethoxy-4-methylamphetamine], the “IC50 of cell viability” value is > 46 µM.

With `CCC(=O)OC1(c2ccccc2)CCN(C)CC1` [1-Methyl-4-phenyl-4-propionoxypiperidine], the “IC50 of cell viability” value was > 46 µM.

As to `O=C(O)[C@H]1C[C@@H](CP(=O)(O)O)CCN1`, the “IC50 of cell viability” value was > 46 µM.

In the case of `C(=C\c1ccncc1)/c1ccccc1` [4-STYRYLPYRIDINE], the “IC50 of cell viability” value is > 46 µM.

Take `C=CCc1cc(OC)c(O)c(C(=O)NCCO)c1` [Alibendol]: the “IC50 of cell viability” value was > 46 µM.

Regarding `O=C(O)c1ccccc1C(=O)Nc1ccc([S+](=O)([O-])Nc2nccs2)cc1` [PHTHALYLSULFATHIAZOLE], the “IC50 of cell viability” value was > 46 µM.

In the case of `O=C(O)[C@@H](O)[C@@H](O)[C@H](O)[C@H](O)CO` [GLUCONIC ACID, BARIUM SALT], the “IC50 of cell viability” value was > 46 µM.

With `CCOC(=O)[C@@H](N)CS` [L-CYSTEINE ETHYLESTER HYDROCHLORIDE], the “IC50 of cell viability” value was > 46 µM.

Take `CCCCC/C=C/C/C=C/CCCCCCCC(=O)OCC` [ETHYL LINOLEATE]: the “IC50 of cell viability” value is > 46 µM.

`CC[N+]1(C)CCCC(OC(=O)C(O)(c2ccccc2)c2ccccc2)C1.[Br-]` (stereo not given) [PIPENZOLATE BROMIDE]: the “IC50 of cell viability” value is > 46 µM.

For `C=CCN1CC(C(=O)N(CCCN(C)C)C(=O)NCC)CC2c3cccc4[nH]cc(c34)CC21` (stereo not given) [CABERGOLINE], the “IC50 of cell viability” value was > 46 µM.

`CC(=O)O[C@H](C)OC(=O)[C@@H](C)c1ccc(-c2ccccc2)c(F)c1` [Ropiopn]: the “IC50 of cell viability” value is > 46 µM.

For `FC1(F)C(F)(F)C(F)(F)C2(F)C(F)(F)C(F)(F)C(F)(F)C(F)(F)C2(F)C1(F)F` (stereo not given) [PERFLUNAFENUM], the “IC50 of cell viability” value is > 46 µM.

`Cc1c(C)c2c(c(C)c1OC(=O)CCC(=O)O)CC[C@@](C)(CCC[C@H](C)CCC[C@H](C)CCCC(C)C)O2` [TOCOPHERYL SUCCINATE]: the “IC50 of cell viability” value is > 46 µM.

For the compound `C=CCSSSCC=C` [DIALLYL TRISULFIDE], the “IC50 of cell viability” value is > 46 µM.

Turning to `CCCC(=O)OC(C(Cl)(Cl)Cl)P(=O)(OC)OC` (stereo not given) [Butonate], the “IC50 of cell viability” value is > 46 µM.

With `CN(C)CCOC1=Cc2ccccc2Sc2ccc(Cl)cc21` [Zotepine], the “IC50 of cell viability” value is > 46 µM.

With `O=C(CCCN1CCC(n2c(=O)[nH]c3ccccc32)CC1)c1ccc(F)cc1` [Benperidol], the “IC50 of cell viability” value was > 46 µM.

Regarding `OCC(O)C(O)C(O)C(O)CO` (stereo not given) [SORBITOL], the “IC50 of cell viability” value is > 46 µM.

`NCCC(O)(P(=O)(O)O)P(=O)(O)O` [Pamidronate disodium]: the “IC50 of cell viability” value is > 46 µM.

With `CCN1CCC[C@H]1CNC(=O)c1cc([S+](N)(=O)[O-])ccc1OC` [Levosulpiride], the “IC50 of cell viability” value is > 46 µM.

With `CCNC(=O)N1CCN(CCCC(c2ccc(F)cc2)c2ccc(F)cc2)CC1.Cl` [Amperozide hydrochloride], the “IC50 of cell viability” value is > 46 µM.

Consider `CCC(C)C1NC(=O)C(Cc2ccc(O)cc2)NC(=O)C(N)CSSCC(C(=O)N2CCCC2C(=O)NC(CC(C)C)C(=O)NCC(N)=O)NC(=O)C(CC(N)=O)NC(=O)C(CCC(N)=O)NC1=O` (stereo not given) [OXYTOCIN], for which the “IC50 of cell viability” value is > 46 µM.

Regarding `Cc1cc(NS(=O)(=O)c2ccc(N)cc2)nc(C)n1` [Sulfisomidine], the “IC50 of cell viability” value is > 46 µM.

On to `O=C(O)c1cccnc1Nc1cccc(C(F)(F)F)c1` [NIFLUMIC ACID], for which the “IC50 of cell viability” value was > 46 µM.

For `C/C=C(\CC)C(=O)NC(N)=O` [1-(2-ETHYLCROTONOYL)UREA], the “IC50 of cell viability” value was > 46 µM.

With `CC1OC(C)OC(C)O1` (stereo not given) [PARALDEHYDE], the “IC50 of cell viability” value is > 46 µM.

On to `C[C@@]12CC(O)C3C(CCC/4=C/C(=O)/C=C\[C@]34C)C1CC[C@]2(O)C(=O)CO` (stereo not given in full) [PREDNISOLONE], for which the “IC50 of cell viability” value was > 46 µM.

On to `CCCC(C)(COC(N)=O)COC(N)=O` [Meprobamate], for which the “IC50 of cell viability” value was > 46 µM.

Consider `CN(C)C(=N)NC(=N)N` [Metformin hydrochloride], for which the “IC50 of cell viability” value was > 46 µM.

On to `N#Cc1c(N(CC(=O)[O-])CC(=O)[O-])sc(C(=O)[O-])c1CC(=O)[O-].O.O.O.O.O.O.O.[Sr+2].[Sr+2]` [STRONTIUM RANELATE], for which the “IC50 of cell viability” value was > 46 µM.

For the compound `CCC1(c2cnc[nH]2)Cc2ccccc2C1` [Atipamezole], the “IC50 of cell viability” value is > 46 µM.

With `C[N+](C)(C)CCOC(=O)CCC(=O)OCC[N+](C)(C)C.[Cl-].[Cl-]` [Succinylcholine chloride], the “IC50 of cell viability” value is > 46 µM.

Turning to `C=C(CC)C(=O)c1ccc(OCC(=O)O)c(Cl)c1Cl` [Ethacrynic acid], the “IC50 of cell viability” value is > 46 µM.

As for `CO[C@H]1[C@@H](O)CC(O[C@@H]1C)OC2[C@@H](O)CC(O[C@@H]2C)OC3[C@@H](O)C[C@@H](O[C@@H]3C)OC4CC[C@@]5(C)C(CCC6C5CC(O)[C@]7(C)[C@@H](CCC67O)C/8=C/C(=O)OC8)C4` (stereo not given in full) [METILDIGOXIN], the “IC50 of cell viability” value was > 46 µM.

In the case of `CCC1(C)CC(=O)NC(=O)C1` [Bemegride], the “IC50 of cell viability” value is > 46 µM.

For `COP(=S)(OC)Oc1ccc(SC)c(C)c1` [Fenthion (Baytex)], the “IC50 of cell viability” value is > 46 µM.

Turning to `CCC[C@]1(CCc2ccccc2)CC(O)=C([C@H](CC)c2cccc(N[S+](=O)([O-])c3ccc(C(F)(F)F)cn3)c2)C(=O)O1` [TIPRANAVIR], the “IC50 of cell viability” value is > 46 µM.

In the case of `Cc1ccsc1/C=C\C1=NCCCN1C.O=C(O)[C@@H](O)[C@@H](O)C(=O)O` [Morantel tartrate], the “IC50 of cell viability” value was > 46 µM.

`CC(=O)OCC(=O)[C@@]1(O)CC[C@H]2[C@@H]3CCC/4=C/C(=O)CC[C@]4(C)[C@H]3C(=O)C[C@]12C` [Cortisone 21-acetate]: the “IC50 of cell viability” value is > 46 µM.

As for `CCCCCCCCCCCCCCNCCO` [MYRALACTUM], the “IC50 of cell viability” value is > 46 µM.

As for `Cc1ccc(C(=O)C(C)CN2CCCCC2)cc1.Cl` (stereo not given) [TOLPERISONE HYDROCHLORIDE], the “IC50 of cell viability” value was > 46 µM.

Turning to `c1ccc(CCNc2nc(-c3ccccc3)cs2)cc1` [Fanetizole], the “IC50 of cell viability” value was > 46 µM.

As for `CC(C)(C)CC(C)(C)c1ccc(O)c(-n2nc3ccccc3n2)c1` [OCTRIZOLUM], the “IC50 of cell viability” value is > 46 µM.

For `Nc1nnnn1-c1ccccc1` [Fenamol], the “IC50 of cell viability” value was > 46 µM.

`CC1(C)CC1C(=O)N/C(=C/CCCCSCC(N)C(=O)[O][Na])C(=O)O` (stereo not given) [CILASTATIN SODIUM]: the “IC50 of cell viability” value was > 46 µM.

Turning to `Cc1ccc(C(C)C)c(O)c1` [Thymol], the “IC50 of cell viability” value was > 46 µM.

As for `O=C(O)Cc1cc(I)c(Oc2ccc(O)c(I)c2)c(I)c1` [Tiratricol, 3,3',5-triiodothyroacetic acid], the “IC50 of cell viability” value was > 46 µM.

As for `CN1CCO[C@H](c2ccccc2)c2ccccc2C1` [Nefopam hydrochloride], the “IC50 of cell viability” value was > 46 µM.

In the case of `CCN(CC)CCO[C@H]1CC[C@@]2(C)C(=CC[C@@H]3C2CC[C@]2(C)C(=O)CCC32)C1` (stereo in doubt) [3b-(2-Diethylaminoethoxy)androst-5-en-17-one, HCl], the “IC50 of cell viability” value was > 46 µM.

Regarding `OC[C@@H](O)[C@@H](O)[C@H](O)[C@H](O)CO` [D-Mannitol], the “IC50 of cell viability” value is > 46 µM.

As for `CCC1(c2ccccc2)CCC(=O)NC1=O` (stereo not given) [Glutethimide], the “IC50 of cell viability” value is > 46 µM.

As to `CCCCCl` [n-Butyl chloride], the “IC50 of cell viability” value is > 46 µM.

With `C=CC[C@]1(O)CCC2C3CCC4=CCCCC4C3CCC21C` (stereo not given in full) [Allylestrenol], the “IC50 of cell viability” value was > 46 µM.

As for `COCCCOc1cc(C[C@@H](C[C@H](N)[C@@H](O)C[C@H](C(=O)NCC(C)(C)C(N)=O)C(C)C)C(C)C)ccc1OC` [Aliskiren], the “IC50 of cell viability” value is > 46 µM.

For the compound `O=P(O)(O)CP(=O)(O)O` [MEDRONIC ACID], the “IC50 of cell viability” value was > 46 µM.

In the case of `CN1C2CCC1CC(OC(=O)c1c[nH]c3ccccc13)C2` (stereo not given) [TROPISETRON], the “IC50 of cell viability” value is > 46 µM.

`CCCCOC(=O)c1ccc(O)cc1` [Butylparaben]: the “IC50 of cell viability” value is > 46 µM.

Consider `NCC(O)c1ccc(O)cc1` (racemic) [DL-OCTOPAMINE], for which the “IC50 of cell viability” value is > 46 µM.

On to `CCC(C)C(=O)OC1CC/C=C2/C=C\C(C)C(CCC3CC(O)CC(=O)O3)[C@H]12` (stereo not given in full) [COMPACTIN], for which the “IC50 of cell viability” value is > 46 µM.
